According to patent publication US8372863B2, “Tetrahydro-1H-pyrrolo fused pyridones” (Merck Sharp & Dohme Corp., priority 2008, dated 2013):
Counter-ions that a name gives are not always drawn.

Molecular target: PHD2 (Homo sapiens, UniProt Q9GZT9)
Test: PHD2 / HIF-1α peptide hydroxylation assay with time resolved fluorescence readout (PHD2 binding activity)
Type: biochemical
Conditions: FLAG-tagged full length PHD2; 0.2 μM 2-oxoglutarate, 0.5 μM HIF-1α peptide; read-out: PHD2 Activity (PHD2 binding activity expressed as IC50)
Procedure: After a 30 min preincubation at room temperature, the enzymatic reactions were initiated by the addition of 4 μL of substrates (final concentrations of 0.2 μM 2-oxoglutarate and 0.5 μM HIF-1α peptide biotinyl-DLDLEMLAPYIPMDDDFQL). After 2 hr at room temperature, the reactions were terminated and signals were developed by the addition of a 25 μL quench/detection mix to a final concentration of 1 mM ortho-phenanthroline, 0.1 mM EDTA, 0.5 nM anti-(His)6 LANCE reagent (Perkin-Elmer Life Sciences), 100 nM AF647-labeled streptavidin (Invitrogen), and 2 μg/ml (His)6-VHL complex (S. Tan(2001) Protein Expr. Purif 21, 224-234). The ratio of time resolved fluorescence signals at 665 and 620 nm was determined, and percent inhibition was calculated relative to an uninhibited control sample run in parallel.

Sequence of PHD2 (Q9GZT9 whole entry): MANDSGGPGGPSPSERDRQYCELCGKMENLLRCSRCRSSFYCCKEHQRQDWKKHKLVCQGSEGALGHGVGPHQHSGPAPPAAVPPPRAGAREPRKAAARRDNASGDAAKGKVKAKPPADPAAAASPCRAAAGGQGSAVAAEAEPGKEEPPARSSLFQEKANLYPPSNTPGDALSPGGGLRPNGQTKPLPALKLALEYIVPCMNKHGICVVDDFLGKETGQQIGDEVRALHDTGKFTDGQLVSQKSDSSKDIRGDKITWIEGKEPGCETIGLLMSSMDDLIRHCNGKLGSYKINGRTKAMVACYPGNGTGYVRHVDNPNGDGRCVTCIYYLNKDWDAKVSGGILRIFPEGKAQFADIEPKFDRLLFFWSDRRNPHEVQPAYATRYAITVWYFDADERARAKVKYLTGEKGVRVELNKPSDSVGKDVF

IC50, < 10 nM:
O=C(O)CNC(=O)c1c(O)c2c(n(Cc3ccc(C(F)(F)F)cc3)c1=O)CN(C(=O)c1cc3ncccn3n1)C2 [Example 24, N-({4-hydroxy-2-oxo-6-(pyrazolo[1,5-a]pyrimidin-2-ylcarbonyl)-1-[4-(trifluoromethyl)benzyl]-2,5,6,7-tetrahydro-1H-pyrrolo[3,4-b]pyridin-3-yl}carbonyl)glycine]
O=C(O)CNC(=O)c1c(O)c2c(n(Cc3ccc(C(F)(F)F)cc3)c1=O)CNC2 [Example 7, N-({4-hydroxy-2-oxo-1-[4-(trifluoromethyl)benzyl]-2,5,6,7-tetrahydro-1H-pyrrolo[3,4-b]pyridin-6-ium-3-yl}carbonyl)glycine trifluoroacetate]
O=C(O)CNC(=O)c1c(O)c2c(n(Cc3ccccc3-c3ccccc3)c1=O)CN(C(=O)c1cscn1)C2 [Example 49, N-{[1-(biphenyl-2-ylmethyl)-4-hydroxy-2-oxo-6-(1,3-thiazol-4-ylcarbonyl)-2,5,6,7-tetrahydro-1H-pyrrolo[3,4-b]pyridin-3-yl]carbonyl}glycine]
O=C(O)CNC(=O)c1c(O)c2c(n(Cc3ccc(C(F)(F)F)cc3)c1=O)CN(C(=O)[C@@H]1CCC(=O)N1)C2 [Example 28, N-({4-hydroxy-2-oxo-6-(5-oxo-L-prolyl)-1-[4-(trifluoromethyl)benzyl]-2,5,6,7-tetrahydro-1H-pyrrolo[3,4-b]pyridin-3-yl}carbonyl)glycine]
COCC(=O)N1Cc2c(O)c(C(=O)NCC(=O)O)c(=O)n(Cc3ccc(C(F)(F)F)cc3)c2C1 [Example 14, N-({4-hydroxy-6-(methoxyacetyl)-2-oxo-1-[4-(trifluoromethyl)benzyl]-2,5,6,7-tetrahydro-1H-pyrrolo[3,4-b]pyridin-3-yl}carbonyl)glycine]
C=CCCC(=O)N1Cc2c(O)c(C(=O)NCC(=O)O)c(=O)n(Cc3ccc(C(F)(F)F)cc3)c2C1 [Example 1, N-({4-hydroxy-2-oxo-6-pent-4-enoyl-1-[4-(trifluoromethyl)benzyl]-2,5,6,7-tetrahydro-1H-pyrrolo[3,4-b]pyridin-3-yl}carbonyl)glycine]
C=CCCC(=O)N1Cc2c(O)c(C(=O)NCC(=O)O)c(=O)n(Cc3ccc(Br)cc3)c2C1C (centres unmarked) [Example 5, N-{[1-(4-bromobenzyl)-4-hydroxy-7-methyl-2-oxo-6-pent-4-enoyl-2,5,6,7-tetrahydro-1H-pyrrolo[3,4-b]pyridin-3-yl]carbonyl}glycine]
O=C(O)CNC(=O)c1c(O)c2c(n(Cc3cccc(-c4cccc(Cl)c4)c3)c1=O)CN(C(=O)c1cscn1)C2 [Example 50, N-{[1-[(3′-chlorobiphenyl-3-yl)methyl]-4-hydroxy-2-oxo-6-(1,3-thiazol-4-ylcarbonyl)-2,5,6,7-tetrahydro-1H-pyrrolo[3,4-b]pyridin-3-yl]carbonyl}glycine]
C=CCCC(=O)N1Cc2c(c(O)c(C(=O)NCC(=O)O)c(=O)n2Cc2ccc(Br)cc2)C1C (centres unmarked) [Example 6, N-{[1-(4-bromobenzyl)-4-hydroxy-5-methyl-2-oxo-6-pent-4-enoyl-2,5,6,7-tetrahydro-1H-pyrrolo[3,4-b]pyridin-3-yl]carbonyl}glycine]
O=C(O)CNC(=O)c1c(O)c2c(n(Cc3cccc(-c4ccccc4Cl)c3)c1=O)CN(C(=O)c1cscn1)C2 [Example 47, N-{[1-[(2′-chlorobiphenyl-3-yl)methyl]-4-hydroxy-2-oxo-6-(1,3-thiazol-4-ylcarbonyl)-2,5,6,7-tetrahydro-1H-pyrrolo[3,4-b]pyridin-3-yl]carbonyl}glycine]
Cc1cc(C(=O)N2Cc3c(O)c(C(=O)NCC(=O)O)c(=O)n(Cc4ccc(C(F)(F)F)cc4)c3C2)n(C)n1 [Example 23, N-({6-[(1,3-dimethyl-1H-pyrazol-5-yl)carbonyl]-4-hydroxy-2-oxo-1-[4-(trifluoromethyl)benzyl]-2,5,6,7-tetrahydro-1H-pyrrolo[3,4-b]pyridin-3-yl}carbonyl)glycine]
O=C(O)CNC(=O)c1c(O)c2c(n(Cc3cccc(-c4ccncc4)c3)c1=O)CN(C(=O)c1cscn1)C2 [Example 51, N-{[4-hydroxy-2-oxo-1-(3-pyridin-4-ylbenzyl)-6-(1,3-thiazol-3-ium-4-ylcarbonyl)-2,5,6,7-tetrahydro-1H-pyrrolo[3,4-b]pyridin-3-yl]carbonyl}glycine trifluoroacetate]
O=C(O)CNC(=O)c1c(O)c2c(n(Cc3ccc(C(F)(F)F)cc3)c1=O)CN(C(=O)c1cccc(Cl)c1)C2 [Example 8, N-({6-(3-chlorobenzoyl)-4-hydroxy-2-oxo-1-[4-(trifluoromethyl)benzyl]-2,5,6,7-tetrahydro-1H-pyrrolo[3,4-b]pyridin-3-yl}carbonyl)glycine]
CC(C)(C)C(=O)N1Cc2c(O)c(C(=O)NCC(=O)O)c(=O)n(Cc3ccc(C(F)(F)F)cc3)c2C1 [Example 15, N-({6-(2,2-dimethylpropanoyl)-4-hydroxy-2-oxo-1-[4-(trifluoromethyl)benzyl]-2,5,6,7-tetrahydro-1H-pyrrolo[3,4-b]pyridin-3-yl}carbonyl)glycine]
O=C(O)CNC(=O)c1c(O)c2c(n(Cc3ccc(C(F)(F)F)cc3)c1=O)CN(S(=O)(=O)c1ccccc1)C2 [Example 19, N-({4-hydroxy-2-oxo-6-(phenyl-sulfonyl)-1-[4-(trifluoromethyl)benzyl]-2,5,6,7-tetrahydro-1H-pyrrolo[3,4-b]pyridin-3-yl}carbonyl)glycine]
CCOC(=O)N1Cc2c(O)c(C(=O)NCC(=O)O)c(=O)n(Cc3ccc(C(F)(F)F)cc3)c2C1 [Example 16, N-({6-(ethoxycarbonyl)-4-hydroxy-2-oxo-1-[4-(trifluoromethyl)benzyl]-2,5,6,7-tetrahydro-1H-pyrrolo[3,4-b]pyridin-3-yl}carbonyl)glycine]
O=C(O)CNC(=O)c1c(O)c2c(n(Cc3ccc(-c4ccccc4)cc3)c1=O)CN(C(=O)c1cscn1)C2 [Example 38, N-{[1-(biphenyl-4-ylmethyl)-4-hydroxy-2-oxo-6-(1,3-thiazol-4-ylcarbonyl)-2,5,6,7-tetrahydro-1H-pyrrolo[3,4-b]pyridin-3-yl]carbonyl}glycine]

IC50, 10 to 100 nM:
O=C(O)CNC(=O)c1c(O)c2c(n(Cc3ccc(C(F)(F)F)cc3)c1=O)CN(Cc1cccc(Cl)c1)C2 [Example 40, N-({6-(3-chlorobenzyl)-4-hydroxy-2-oxo-1-[4-(trifluoromethyl)benzyl]-2,5,6,7-tetrahydro-1H-pyrrolo[3,4-b]pyridin-6-ium-3-yl}carbonyl)glycine chloride]
O=C(O)CNC(=O)c1c(O)c2c(n(Cc3ccc(C(F)(F)F)cc3)c1=O)CN(C(=O)c1ccno1)C2 [Example 33, N-({4-hydroxy-6-(isoxazol-5-ylcarbonyl)-2-oxo-1-[4-(trifluoromethyl)benzyl]-2,5,6,7-tetrahydro-1H-pyrrolo[3,4-b]pyridin-3-yl}carbonyl)glycine]
CCN1Cc2c(O)c(C(=O)NCC(=O)O)c(=O)n(Cc3ccc(C(F)(F)F)cc3)c2C1 [Example 41, N-({6-ethyl-4-hydroxy-2-oxo-1-[4-(trifluoromethyl)benzyl]-2,5,6,7-tetrahydro-1H-pyrrolo[3,4-b]pyridin-6-ium-3-yl}carbonyl)glycine trifluoroacetate]
